Assay results published in US20250108036A1, “COMPOSITIONS FOR REMOVING SENESCENT CELLS AND USES THEREOF” (LIFECEUTIX CO., LTD., priority 2021, published 2025).

Experiments:
lipofuscin = lipofuscin (Sudan Black B) staining of muscle of naturally aged mice (Example 7-4); type: in vivo, C57BL6J mice; settings: stained area, LX-112 70 mg/kg oral daily 21 days
Procedure: (§1) After 22-month-old female C57BL6J mice (purchased from KRIBB Laboratory Animal Resource Center) were adapted to the experimental environment for one week, the aged mice were randomized into an experimental group and a control group. 8-week-old mice that were not aged were used as controls. LX-112 was mixed with 0.5% CMC-Na solution (purchased from Sigma) and administered orally at a concentration of 70 mg/kg daily for 21 days. The control group was administered only the solution in the same volume. After drug administration was completed, the method described in each Example below was performed.
Mice was sacrificed and tissue sections from muscle tissue were prepared in the same manner as in Example 7-3. Lipofuscin is a degenerative abnormal complex of proteins and lipids produced in cell lysosomes with aging and is a marker of aging-related degeneration. The amount of lipofuscin was measured as follows: the sections were stained using Sudan Black B (purchased from Sigma) and photographed, and then the area of the stained area was calculated using the Image J program and quantified by normalizing it based on the total area.

[1] = system: foreskin cells in which aging was induced by doxorubicin; test: cell viability of senescent foreskin cells with caspase inhibitor QVD-Oph (Example 10, Table 61); type: cell-based, human; settings: LX-112 10 μM; for Survial (%): doxorubicin-senescent foreskin cells, 3 days
IL6, activin A = test: serum IL6 and activin A ELISA in obesity-aged mice (Example 9-3); type: in vivo, C57BL6J mice; settings: LX-112 70 mg/kg oral daily 21 days
Procedure: 15-week-old male C57BL6J mice (purchased from Jackson Laboratories), whose obesity was induced by a high-fat diet, were adapted to the experimental environment for one week, and then the mice were randomized into an experimental group and a control group. LX-112 was mixed with 0.5% CMC-Na solution (purchased from Sigma) and administered orally at a concentration of 70 mg/kg daily for 21 days. The control group was administered only the solution in the same volume. After drug administration was completed, the method described in each Example below was performed. Mice were sacrificed and the weight of adipose tissue in each area was measured.
Using the same method as in Example 7-5, the amount of IL6 and activin A, which are aging-related inflammation secretory factors (SASP), were measured in serum collected from mice using an enzyme-linked immunosorbent assay (ELISA Kit, purchased from R&D Systems).

[2] = system: foreskin cells, replicative senescence (REP); test: CellTiter-Glo cell viability of replicative senescent foreskin cells (Example 3-2); type: cell-based, human; settings: 3 days
[3] = system: MMP3, IL1β, MMP12, IL6, MMP13; test: SASP mRNA qRT-PCR in organ tissues of naturally aged mice (Example 7-6); type: in vivo, C57BL6J mice; settings: LX-112 70 mg/kg oral daily 21 days, aged untreated = 100%
Procedure: as §1
Using cDNA synthesized in the same manner as in Example 7-2, qRT-PCR was performed and analyzed for MMP3, IL1β, MMP12, IL6, and MMP13, which are aging-related inflammation and fibrosis secretory factors (SASP). […] Table 31 calculates the mRNA amount of each factor after senescence was induced as 100% and compared it with the mRNA amount of each factor after treatment with LX-112.

[4] = system: aging-related inflammation and fibrosis secretory factors (SASP); test: ProcartaPlex immunoassay of SASP factors in culture medium of senescent foreskin cells (Example 5); type: cell-based, human; settings: LX-112 3 μM; senescent untreated = 100%
Procedure: In the same manner as Example 3, natural aging of human foreskin cells was induced and treated with LX-112 at a concentration of 3 μM. Then the expression levels of aging-related inflammation and fibrosis secretory factors (SASP), IL1α, IL1β, IL6, IL10, MCP1, PAI1 VCAM1, MMP1, MMP2, MMP3, MMP12, and TGFβ, were measured using an immunoassay (ProcartaPlex Immunoassay, purchased from Thermo Fisher Scientific) with the obtained culture medium. […] Table 17 calculates the amount of each factor after inducing aging to 100% and compares it with the amount of each factor after treatment with LX-112.

[5] = system: normally proliferating cancer (A549) cells; test: survival of normally proliferating A549 cancer cells treated with medium supernatant of compound-killed cancer cells (Example 14, Table 70); type: cell-based, human
Procedure: In the same way as Examples 12 and 13, senescence of cancer (A549) cells was induced by treatment with doxorubicin or the control group (DMSO), and the cells were cultured. […] In the same manner as in Example 13, the medium supernatants comprising secreted fluid from normally proliferating and senescent cancer cells was obtained. Normally proliferating and senescent-induced cancer cells were treated with the medium supernatants.

## O=c1c2ccccc2[se]n1CCn1[se]c2ccccc2c1=O [LX-112, 1,2-[bis(1,2-benzisoselenazolone-3(2H)-ketone)]ethane]
lipofuscin
  Lipofuscin (%) Muscle: 71 (±6) %
[1]; QVD-Oph 20 μM applied 4 hours before
  Survial (%): 53.9 (±2.2) %
[1]; without QVD-Oph
  Survial (%): 39.5 (±3.7) %
[1]; QVD-Oph 20 μM, ABT-263 1 μM
  inhibition of the death of senescent cells by the caspase inhibitor: did not effectively inhibit
IL6, activin A
  Activin A (%): 64.5 (±12.3) %
  IL6 (%): 51.8 (±14.2) %
[2]; LX-112 1.1 μM
  Survival (%): 59 (±6) %
[2]; LX-112 10 μM
  Survival (%): 1 (±0.9) %
[3]
  mRNA (%) Kidney IL1β: 67 (±3.9) %
  mRNA (%) Liver MMP3: 75 (±13) %
  mRNA (%) Lung MMP 12: 81 (±13) %
  mRNA (%) Muscle IL6: 65 (±21) %
  mRNA (%) Skin MMP3: 92 (±6) %
  mRNA (%) Skin MMP12: 78 (±14) %
  mRNA (%) Skin MMP13: 95 (±2) %
[4]
  Protein (%) IL1α: 57 (±5) %
  Protein (%) IL1β: 46 (±6) %
  Protein (%) IL6: 41 (±4) %
  Protein (%) IL10: 57 (±7) %
  Protein (%) MCP1: 38 (±8) %
  Protein (%) MMP1: 43 (±3) %
  Protein (%) MMP2: 39 (±9) %
  Protein (%) MMP3: 38 (±8) %
  Protein (%) MMP12: 41 (±6) %
  Protein (%) PAI1: 41 (±4) %
  Protein (%) TGFβ: 49 (±9) %
  Protein (%) VCAM1: 45 (±5) %

## COC(=O)c1ccc([C@H]2c3[nH]c4ccccc4c3C[C@H](C(=O)OC)N2C(=O)CCl)cc1 [LX-405]
[5]; supernatant from No Cells
  Survival (%): 101.4 (±1.3) %
[5]; supernatant from death-induced proliferating cells (LX-405 30 μM)
  Survival (%): 98.6 (±4.8) %
[5]; supernatant from death-induced senescent cells (LX-405 30 μM)
  Survival (%): 105.2 (±4.9) %
